Assays:
AILNCaP14 cell line = experiment: Cell proliferation suppression test (crystal violet staining); type: cell-based
Procedure: (§1) 5×10^3 cells of the LNCaP cell line, 4×10^4 cells of the AILNCaP14 cell line, and 6×10^4 cells of the AILNCaP15 cell line were each seeded on a 24-well plate to which 1 mL/well of medium was dispensed. […] After culturing each cell line for an additional two weeks, the status of cell proliferation was measured by cell staining (Bommi-Reddy et al. Proc Natl Acad Sci USA. 105: 16484-16489 (2008)) using crystal violet.
(§2) The final concentrations of alvocidib were set to be 0.125, 0.25, 0.5, and 1.0 uM.

AILNCaP15 cell line = experiment: as above; type: cell-based
Procedure: as §1, §2

[1] = system: androgen receptor (AR) phosphorylation in AILNCaP14 cell line; experiment: AR phosphorylation suppression test by immunoblotting; type: cell-based; conditions: 0.25 uM, 1 to 4 days
Procedure: (§3) After the culturing, each of 1×10^6 cells were washed with ice cooled PBS, and then treated with cell lysis buffer containing 8 M of urea, 20 mM of Tris hydrochloride (pH 7.4), 1 mM of EDTA, and protease inhibitor (Nacalai tesque, Cat no. 03969) and phosphatase inhibitor (Nacalai tesque, Cat no. 07575-51)—added 1.0% Triton X. The cell lysate was then subjected to high speed centrifugation (21,500 G) for 20 minutes at 4° C. The total amount of cell protein was quantified using a protein quantification reagent (Thermo Fisher Scientific, Cat no. 23227).
As a positive control, JQ1 (Cayman Chemical) was used.

[2] = system: androgen receptor (AR) phosphorylation in AILNCaP15 cell line; experiment: as above; type: cell-based; conditions: 0.25 uM, 1 to 4 days
Procedure: as §3

[3] = system: AR nuclear translocation in AILNCaP14 cell line; experiment: AR nuclear translocation suppression test using immunofluorescent staining; type: cell-based; conditions: 0.25 μM, 4 days, vs DMSO control
Procedure: 1×10^5 cells of the […]14 cell line were seeded on a 48-well plate to which 0.5 mL/well of medium was dispensed. After 3 days of culture under the conditions of 5% CO2 at 37° C., a DMSO solution of alvocidib was diluted with a medium so that the final concentration of alvocidib would be 0.25 μM and added to each well (final volume of 1.0 mL). As a control, alvocidib-free DMSO was similarly diluted and added. After culturing for 4 days, the cells were gently washed once with PBS, and immobilized by allowing 4% paraformaldehyde phosphate buffer to act on the cells for 15 minutes. After washing the cells gently twice with PBS, the cells were incubated for 15 minutes in a 4% PBST solution. The cells were further incubated for 15 minutes in a blocking reagent (DS Pharma Biomedical, Cat no. UK-B80), and the cells were then incubated overnight at 4° C. after adding an anti-AR antibody (Santa Cruz Biotechnology Inc., Cat no. sc-816). After washing the cells gently twice with PBS, the cells were incubated for 45 minutes at room temperature after adding a secondary antibody for immunofluorescent staining (Thermo Fisher Scientific, Cat no A-21206). After washing the cells gently twice with PBS, the cells were incubated for 10 minutes after adding DAPI (Nacalai tesque, Cat no. 11034-56). After washing the cells twice for 10 minutes with 1% PBS, signals were measured with a fluorescence microscope.

[4] = system: AILNCaP14 cell derived subcutaneous xenograft; experiment: Tumor proliferation suppression test using a subcutaneous xenograft mouse model; type: in vivo; conditions: castrated NOD-SCID mice; 3 mg/kg intraperitoneally, three times every two days; vs saline negative control; p value=0.0497
Procedure: 2×10^6 […] 14 cells were subjected to suspension culture for 4 days using a PrimeSurface® petri dish 90 mm (product code: MS-9090X) in a phenol red free RPMI 1640 medium containing activated carbon-treated 10% fetal bovine serum (csFBS). The cultured cells that were collected, mixed with 350 uL of Matrigel (Corning® Matrigel® Basement Membrane Matrix; catalog number: 356237), and then divided into 3 equal portions were transplanted subcutaneously into three sites on NOD-SCID mice (male, 8 mice, 6 to 8 weeks old) 7 days after castration. […] The tumor volume after three days (day 7) from the third administration was measured, and the ratio of increase in tumor volume was computed in accordance with the following equation. Ratio of increase in tumor volume=tumor volume on day 7/tumor volume on day 0 As a negative control group, the same test was conducted using saline in place of an agent administered solution, and the ratio of increase in tumor volume was computed.

[5] = Body weight in the xenograft mouse test; type: in vivo; conditions: NOD-SCID mice; 3 mg/kg intraperitoneally, three times every two days
Procedure: 2×10^6 […]14 cells were subjected to suspension culture for 4 days using a PrimeSurface® petri dish 90 mm (product code: MS-9090X) in a phenol red free RPMI 1640 medium containing activated carbon-treated 10% fetal bovine serum (csFBS). The cultured cells that were collected, mixed with 350 uL of Matrigel (Corning® Matrigel® Basement Membrane Matrix; catalog number: 356237), and then divided into 3 equal portions were transplanted subcutaneously into three sites on NOD-SCID mice (male, 8 mice, 6 to 8 weeks old) 7 days after castration. After the subcutaneous transplantation, the mice were continuously raised, and an aqueous saline solution of alvocidib hydrochloride (3 mg/kg) was administered intraperitoneally to the mice for a total of three times at an interval of once every two days from the point (day 0) where the volume of tumor formed subcutaneously reached 25 mm^3 or greater and 100 mm^3 or less at one or two of the tumor transplantation sites.

LNCaP cell line = experiment: Cell proliferation suppression test (crystal violet staining); type: cell-based; conditions: final concentration of 0.625 uM or greater, two weeks culture
Procedure: as §1

[6] = 336 h, two weeks culture, crystal violet
[7] = final concentration of 0.25 uM or greater
[8] = final concentration of 5 uM, compared to LNCaP cell line

Row | SMILES | IC50 (AILNCaP14 cell line; [6]) | effect of suppressing cell proliferation (AILNCaP14 cell line; [7]) | IC50 (AILNCaP15 cell line; [6]) | effect of suppressing cell proliferation (AILNCaP15 cell line; [7]) | phosphorylation of serine 81 of AR [1] | phosphorylation of serine 210 or serine 213 of AR [1] | phosphorylation of serine 81 of AR [2] | phosphorylation of serine 210 or serine 213 of AR [2] | AR nuclear translocation [3] | ratio of increase in tumor volume (day 7/day 0) [4] | decrease in the body weight of mice [5] | suppression of cell proliferation (LNCaP cell line) | suppression of cell proliferation (AILNCaP14 cell line; [8]) | suppression of cell proliferation (AILNCaP15 cell line; [8])
1 | CN1CC[C@H](c2c(O)cc(O)c3c(=O)cc(-c4ccccc4Cl)oc23)[C@H](O)C1 [alvocidib, 2-(2-chlorophenyl)-5,7-dihydroxy-8-[(3S,4R)-3-hydroxy-1-methylpiperidin-4-yl]-4H-1-benzopyran-4-one] | 125 to 250 nM | very potent effect of suppressing cell proliferation | 125 to 250 nM | very potent effect of suppressing cell proliferation | suppressed over time | suppressed over time | suppressed over time | suppressed over time | suppressed | decreased | not observed |  |  | 
2 | CNC(=O)c1ccc(N2C(=S)N(c3ccc(C#N)c(C(F)(F)F)c3)C(=O)C2(C)C)cc1F [enzalutamide] |  |  |  |  |  |  |  |  |  |  |  | clear suppression of cell proliferation | significant weaker suppression of cell proliferation | significant weaker suppression of cell proliferation
